# Measurements published in patent US20080051387A1, “TETRAHYDROPYRIDO[3,4-D]PYRIMIDINES AND RELATED ANALOGUES” (priority 2006, published 2008).
# Target: T1, chimeric human H3 receptor (Homo sapiens, UniProt Q9Y5N1)
# T1 construct: rat Galpha-i2 (Gnai2, rat); made in house; host or cells: Sf9 insect cells (baculovirus); P2 membranes
# Assay: Chimeric human H3 receptor screening GTP binding assay (inhibition of histamine-stimulated GTP-gamma35S binding, Example 8)
# Assay type: biochemical
# Settings: 1 h; assay described in Example 8; symbol "!" in column headed Ki; read-out: Ki ("!": percent inhibition of agonist-induced GTP-gammaS binding to H3)
# Summary of the method: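 Sf9 membranes co-expressing chimeric human H3 receptor and heterotrimeric G-protein (35 μg protein) incubated 60 min at room temperature with 4 μM compound, 1 μM histamine and 125 pM GTP-gamma35S in pH 7.4 buffer with 10 μM GDP. Filter-bound radioactivity, nonspecific (10 μM GTP-gammaS) subtracted, reported as % inhibition of histamine signal.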
# T1 sequence (Q9Y5N1 with tags, fused parts or gaps): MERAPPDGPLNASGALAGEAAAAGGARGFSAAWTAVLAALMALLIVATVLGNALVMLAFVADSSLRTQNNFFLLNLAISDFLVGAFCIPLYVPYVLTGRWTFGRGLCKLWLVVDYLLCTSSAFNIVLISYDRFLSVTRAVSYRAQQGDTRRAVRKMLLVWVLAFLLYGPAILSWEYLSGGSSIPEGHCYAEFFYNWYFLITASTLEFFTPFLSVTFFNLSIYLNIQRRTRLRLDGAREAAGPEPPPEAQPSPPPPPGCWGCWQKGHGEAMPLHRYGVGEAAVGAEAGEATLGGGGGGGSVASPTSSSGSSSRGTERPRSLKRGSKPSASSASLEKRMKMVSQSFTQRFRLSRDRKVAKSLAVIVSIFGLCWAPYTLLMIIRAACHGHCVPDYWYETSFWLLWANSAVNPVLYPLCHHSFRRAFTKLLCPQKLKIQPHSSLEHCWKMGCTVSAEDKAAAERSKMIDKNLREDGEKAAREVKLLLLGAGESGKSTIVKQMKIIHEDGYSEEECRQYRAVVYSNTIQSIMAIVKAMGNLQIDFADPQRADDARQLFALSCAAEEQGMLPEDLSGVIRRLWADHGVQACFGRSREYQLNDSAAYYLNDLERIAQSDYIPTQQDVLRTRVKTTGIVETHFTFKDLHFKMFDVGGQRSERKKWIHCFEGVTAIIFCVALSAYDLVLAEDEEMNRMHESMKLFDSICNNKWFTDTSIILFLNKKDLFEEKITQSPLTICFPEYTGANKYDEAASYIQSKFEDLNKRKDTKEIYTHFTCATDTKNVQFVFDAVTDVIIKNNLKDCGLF
row,Compound,inhibition at 4 µM [%]
1,"O=C(c1cc2ccccc2s1)N1CCc2cnc(N3CCN(C4CCC4)CC3)nc2CC1 [Compound 455, 7-(1-benzothien-2-ylcarbonyl)-2-(4-cyclobutylpiperazin-1-yl)-6,7,8,9-tetrahydro-5H-pyrimido[4,5-d]azepine]",≥ 90
2,"O=C(c1cncc(Br)c1)N1CCc2cnc(N3CCN(C4CCC4)CC3)nc2CC1 [Compound 481, 7-[(5-bromopyridin-3-yl)carbonyl]-2-(4-cyclobutylpiperazin-1-yl)-6,7,8,9-tetrahydro-5H-pyrimido[4,5-d]azepine]",≥ 90
3,"Cc1cccc(CC(=O)N2CCc3cnc(N4CCN(C5CCC5)CC4)nc3CC2)c1 [Compound 514, 2-(4-cyclobutylpiperazin-1-yl)-7-[(3-methylphenyl)acetyl]-6,7,8,9-tetrahydro-5H-pyrimido[4,5-d]azepine]",≥ 90
4,"CCCc1ccc(C(=O)N2CCc3cnc(N4CCN(C5CCC5)CC4)nc3CC2)s1 [Compound 452, 2-(4-cyclobutylpiperazin-1-yl)-7-[(5-propyl-2-thienyl)carbonyl]-6,7,8,9-tetrahydro-5H-pyrimido[4,5-d]azepine]",≥ 90
5,"Cn1nc(C(C)(C)C)cc1C(=O)N1CCc2cnc(N3CCN(C4CCC4)CC3)nc2CC1 [Compound 506, 7-[(3-tert-butyl-1-methyl-1H-pyrazol-5-yl)carbonyl]-2-(4-cyclobutylpiperazin-1-yl)-6,7,8,9-tetrahydro-5H-pyrimido[4,5-d]azepine]",≥ 90
6,"COc1ccc(/C=C/C(=O)N2CCc3cnc(N4CCN(C5CCC5)CC4)nc3CC2)c(OC)c1 [Compound 570, 2-(4-cyclobutylpiperazin-1-yl)-7-[(2E)-3-(2,4-dimethoxyphenyl)prop-2-enoyl]-6,7,8,9-tetrahydro-5H-pyrimido[4,5-d]azepine]",≥ 90
7,"O=C(/C=C/c1ccc(-c2ccccc2)cc1)N1CCc2cnc(N3CCN(C4CCC4)CC3)nc2CC1 [Compound 556, 7-[(2E)-3-biphenyl-4-ylprop-2-enoyl]-2-(4-cyclobutylpiperazin-1-yl)-6,7,8,9-tetrahydro-5H-pyrimido[4,5-d]azepine]",≥ 90
8,"O=C(c1cc(F)ccc1F)N1CCc2cnc(N3CCN(C4CCC4)CC3)nc2CC1 [Compound 391, 2-(4-cyclobutylpiperazin-1-yl)-7-(2,5-difluorobenzoyl)-6,7,8,9-tetrahydro-5H-pyrimido[4,5-d]azepine]",≥ 90
9,"Cc1cc(C(=O)N2CCc3cnc(N4CCN(C5CCC5)CC4)nc3CC2)oc1C [Compound 468, 2-(4-cyclobutylpiperazin-1-yl)-7-(4,5-dimethyl-2-furoyl)-6,7,8,9-tetrahydro-5H-pyrimido[4,5-d]azepine]",≥ 90
10,"O=C(/C=C/c1ccccc1F)N1CCc2cnc(N3CCN(C4CCC4)CC3)nc2CC1 [Compound 547, 2-(4-cyclobutylpiperazin-1-yl)-7-[(2E)-3-(2-fluorophenyl)prop-2-enoyl]-6,7,8,9-tetrahydro-5H-pyrimido[4,5-d]azepine]",≥ 90
11,"COc1cc(/C=C/C(=O)N2CCc3cnc(N4CCN(C5CCC5)CC4)nc3CC2)ccc1OCc1ccccc1 [Compound 561, 7-{(2E)-3-[4-(benzyloxy)-3-methoxyphenyl]prop-2-enoyl}-2-(4-cyclobutylpiperazin-1-yl)-6,7,8,9-tetrahydro-5H-pyrimido[4,5-d]azepine]",≥ 90
12,"Nc1cc(Cl)ccc1C(=O)N1CCc2cnc(N3CCN(C4CCC4)CC3)nc2CC1 [Compound 540, 5-chloro-2-{[2-(4-cyclobutylpiperazin-1-yl)-5,6,8,9-tetrahydro-7H-pyrimido[4,5-d]azepin-7-yl]carbonyl}aniline]",≥ 90

# Same assay, conditions: 1 h; assay of Example 8; symbol "!" in column headed Ki; read-out: percent inhibition of agonist-induced GTP-gammaS binding to H3
row,Compound,inhibition at 4 µM [%]
1,"O=C(COc1ccc(OC(F)(F)F)cc1)N1CCc2cnc(N3CCN(C4CCC4)CC3)nc2CC1 [Compound 319, 2-(4-cyclobutylpiperazin-1-yl)-7-{[4-(trifluoromethoxy)phenoxy]acetyl}-6,7,8,9-tetrahydro-5H-pyrimido[4,5-d]azepine]",≥ 90
2,"COc1ccc(C(=O)N2CCc3cnc(N4CCN(C5CCC5)CC4)nc3CC2)cc1OC [Compound 378, 2-(4-cyclobutylpiperazin-1-yl)-7-(3,4-dimethoxybenzoyl)-6,7,8,9-tetrahydro-5H-pyrimido[4,5-d]azepine]",≥ 90
3,"O=C(Cc1cccc(Oc2ccccc2)c1)N1CCc2cnc(N3CCN(C4CCC4)CC3)nc2CC1 [Compound 282, 2-(4-cyclobutylpiperazin-1-yl)-7-[(3-phenoxyphenyl)acetyl]-6,7,8,9-tetrahydro-5H-pyrimido[4,5-d]azepine]",≥ 90
4,"COc1ccc(C(=O)N2CCc3cnc(N4CCN(C5CCC5)CC4)nc3CC2)cc1 [Compound 191, 2-(4-cyclobutylpiperazin-1-yl)-7-(4-methoxybenzoyl)-6,7,8,9-tetrahydro-5H-pyrimido[4,5-d]azepine]",≥ 90
5,"c1nc(N2CCN(C3CCC3)CC2)nc2c1CCN(CC1CCOCC1)CC2 [Compound 272, 2-(4-cyclobutylpiperazin-1-yl)-7-(tetrahydro-2H-pyran-4-ylmethyl)-6,7,8,9-tetrahydro-5H-pyrimido[4,5-d]azepine]",≥ 90
6,"O=C(C(c1ccccc1)c1ccccc1)N1CCc2cnc(N3CCN(C4CCC4)CC3)nc2CC1 [Compound 354, 2-(4-cyclobutylpiperazin-1-yl)-7-(diphenylacetyl)-6,7,8,9-tetrahydro-5H-pyrimido[4,5-d]azepine]",≥ 90
7,"O=C(COc1ccc(F)cc1)N1CCc2cnc(N3CCN(C4CCC4)CC3)nc2CC1 [Compound 317, 2-(4-cyclobutylpiperazin-1-yl)-7-[(4-fluorophenoxy)acetyl]-6,7,8,9-tetrahydro-5H-pyrimido[4,5-d]azepine]",≥ 90
8,"CCCOc1ccc(C(=O)N2CCc3cnc(N4CCN(C5CCC5)CC4)nc3CC2)cc1 [Compound 379, 2-(4-cyclobutylpiperazin-1-yl)-7-(4-propoxybenzoyl)-6,7,8,9-tetrahydro-5H-pyrimido[4,5-d]azepine]",≥ 90
9,"COc1cc(Br)c(CC(=O)N2CCc3cnc(N4CCN(C5CCC5)CC4)nc3CC2)cc1OC [Compound 299, 7-[(2-bromo-4,5-dimethoxyphenyl)acetyl]-2-(4-cyclobutylpiperazin-1-yl)-6,7,8,9-tetrahydro-5H-pyrimido[4,5-d]azepine]",≥ 90

# Same assay, conditions: symbol ! in Ki; test compound 4 μM, 1 μM histamine; read-out: percent inhibition of agonist-induced GTP-gammaS binding to H3
row,Compound,inhibition at 4 µM [%]
1,"CCCCCCN1CCc2nc(N3CCN(C4CCC4)CC3)ncc2C1 [Compound 630, 2-(4-cyclobutylpiperazin-1-yl)-6-hexyl-5,6,7,8-tetrahydropyrido[4,3-d]pyrimidine]",≥ 90
2,"O=C(c1ccccc1F)N1CCc2c(ncnc2N2CCN(C3CCC3)CC2)C1 [Compound 31, 4-(4-cyclobutylpiperazin-1-yl)-7-(2-fluorobenzoyl)-5,6,7,8-tetrahydropyrido[3,4-d]pyrimidine]",≥ 90
3,"Cc1noc(C)c1C(=O)N1CCc2c(ncnc2N2CCN(C3CCC3)CC2)C1 [Compound 37, 4-(4-cyclobutylpiperazin-1-yl)-7-[(3,5-dimethylisoxazol-4-yl)carbonyl]-5,6,7,8-tetrahydropyrido[3,4-d]pyrimidine]",≥ 90
4,"CCC(C)C(=O)N1CCc2c(ncnc2N2CCN(C3CCC3)CC2)C1 (stereo not drawn) [Compound 60, 4-(4-cyclobutylpiperazin-1-yl)-7-(2-methylbutanoyl)-5,6,7,8-tetrahydropyrido[3,4-d]pyrimidine]",≥ 90
5,"COc1cccc(CN2CCc3c(ncnc3N3CCN(C4CCC4)CC3)C2)c1OC [Compound 94, 4-(4-cyclobutylpiperazin-1-yl)-7-(2,3-dimethoxybenzyl)-5,6,7,8-tetrahydropyrido[3,4-d]pyrimidine]",≥ 90
6,"Fc1cccc(CN2CCc3c(ncnc3N3CCN(C4CCC4)CC3)C2)c1 [Compound 67, 4-(4-cyclobutylpiperazin-1-yl)-7-(3-fluorobenzyl)-5,6,7,8-tetrahydropyrido[3,4-d]pyrimidine]",≥ 90
7,"CCCC(C)CN1CCc2ncnc(N3CCN(C4CCC4)CC3)c2CC1 (stereo not drawn) [Compound 170, 4-(4-cyclobutylpiperazin-1-yl)-7-(2-methylpentyl)-6,7,8,9-tetrahydro-5H-pyrimido[4,5-d]azepine]",≥ 90
8,"CC(C)c1ccc(C(=O)N2CCc3c(ncnc3N3CCN(C4CCC4)CC3)C2)cc1 [Compound 41, 4-(4-cyclobutylpiperazin-1-yl)-7-(4-isopropylbenzoyl)-5,6,7,8-tetrahydropyrido[3,4-d]pyrimidine]",≥ 90
9,"c1ccc(CN2CCc3c(ncnc3N3CCN(CCCN4CCCCC4)CC3)C2)cc1 [Compound 21, 7-benzyl-4-[4-(3-piperidin-1-ylpropyl)piperazin-1-yl]-5,6,7,8-tetrahydropyrido[3,4-d]pyrimidine]",≥ 90
10,"Cc1c(F)cccc1C(C)N1CCc2c(ncnc2N2CCN(C3CCC3)CC2)C1 (stereo not drawn) [Compound 134, 4-(4-cyclobutylpiperazin-1-yl)-7-[1-(3-fluoro-2-methylphenyl)ethyl]-5,6,7,8-tetrahydropyrido[3,4-d]pyrimidine]",≥ 90
11,"O=C(c1ccco1)N1CCc2c(ncnc2N2CCN(C3CCC3)CC2)C1 [Compound 32, 4-(4-cyclobutylpiperazin-1-yl)-7-(2-furoyl)-5,6,7,8-tetrahydropyrido[3,4-d]pyrimidine]",≥ 90

# Same assay, conditions: test compound 4 μM, 1 μM histamine; read-out: percent inhibition of agonist-induced GTP-gammaS binding to H3
row,Compound,inhibition at 4 µM [%]
1,"c1nc2c(c(N3CCN(C4CCC4)CC3)n1)CCN(CC1CCCCC1)C2 [Compound 2, 4-(4-Cyclobutylpiperazin-1-yl)-7-cyclohexylmethyl-5,6,7,8-tetrahydropyrido[3,4-d]pyrimidine]",≥ 90
